# Results as given in PubChem BioAssay AID2060617 (Molecular Pharmacology Branch, DTP, NCI, 2025).
# Values joined by “and” are separate entries in the source; they are usually repeats but may differ in a detail not shown here. Identical values can stand only once.
# System: 485368-065-R4-J2-PDC spheroids with HUVEC/MSC, viability
# Assay: Anticancer human tumor 485368-065-R4-J2-PDC patient-derived pancreatic carcinoma cell line growth inhibition [CLK]
# Conditions: for viability, T/C: stronger effect = lower value
# Summary of the method: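 Multi-cell-type spheroids combined patient-derived tumor cells with HUVEC endothelial cells and human mesenchymal stem cells. Paired agents were dosed in half-log steps down from about clinical Cmax, or from 10 microM where Cmax was unknown.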
# [1] = curve of first compound, second compound 0.0316 µM
# [2] = curve of first compound, second compound 0.1 µM
# [3] = curve of first compound, second compound 0.316 µM
# [4] = curve of first compound, second compound 1 µM
# [5] = curve of first compound, second compound 3.16 µM
# [6] = curve of first compound, second compound 10 µM
# [7] = second compound 0.0316 µM, first compound 0.0316 µM
# [8] = second compound 0.0316 µM, first compound 0.1 µM
# [9] = second compound 0.0316 µM, first compound 0.316 µM
# [10] = second compound 0.0316 µM, first compound 1 µM
# [11] = second compound 0.1 µM, first compound 0.0316 µM
# [12] = second compound 0.1 µM, first compound 0.1 µM
# [13] = second compound 0.1 µM, first compound 0.316 µM
# [14] = second compound 0.1 µM, first compound 1 µM
# [15] = second compound 0.316 µM, first compound 0.0316 µM
# [16] = second compound 0.316 µM, first compound 0.1 µM
# [17] = second compound 0.316 µM, first compound 0.316 µM
# [18] = second compound 0.316 µM, first compound 1 µM
# [19] = second compound 1 µM, first compound 0.0316 µM
# [20] = second compound 1 µM, first compound 0.1 µM
# [21] = second compound 1 µM, first compound 0.316 µM
# [22] = second compound 1 µM, first compound 1 µM
# [23] = second compound 3.16 µM, first compound 0.0316 µM
# [24] = second compound 3.16 µM, first compound 0.1 µM
# [25] = second compound 3.16 µM, first compound 0.316 µM
# [26] = second compound 3.16 µM, first compound 1 µM
# [27] = second compound 10 µM, first compound 0.0316 µM
# [28] = second compound 10 µM, first compound 0.1 µM
# [29] = second compound 10 µM, first compound 0.316 µM
# [30] = second compound 10 µM, first compound 1 µM
# 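Further: spheroids exposed to compounds for seven days.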
# 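Wherever viability, T/C is given: 100% = DMSO vehicle control wells.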
structure (smiles),measurement,setting,value
CCN1CCN(Cc2ccc(Nc3ncc(F)c(-c4cc(F)c5nc(C)n(C(C)C)c5c4)n3)nc2)CC1,"viability, T/C",compound 0.00316 µM,91.1% and 106%
same,"viability, T/C",compound 0.01 µM,114% and 96.1%
same,"viability, T/C",compound 0.0316 µM,115% and 116%
same,"viability, T/C",compound 0.1 µM,140% and 113%
same,"viability, T/C",compound 0.316 µM,128% and 129%
same,"viability, T/C",compound 1 µM,117% and 116%
same,IC50,curve of compound,> 1 µM
CCc1c2c(nc3ccc(O)cc13)-c1cc3c(c(=O)n1C2)COC(=O)[C@]3(O)CC + CN1CCN(c2cc(C(=O)Nc3cc4cc(-c5cnn(C)c5)ccc4cn3)ccn2)CC1,IC50,[1],< 0.00316 µM
same,IC50,[2],< 0.00316 µM
same,IC50,[3],< 0.00316 µM
same,IC50,[4],< 0.00316 µM
same,IC50,[5],< 0.00316 µM
same,IC50,[6],< 0.00316 µM
same,"viability, T/C","second compound 0.0316 µM, first compound 0.00316 µM",38.6%
same,"viability, T/C","second compound 0.0316 µM, first compound 0.01 µM",20%
same,"viability, T/C",[7],11.3%
same,"viability, T/C",[8],7.09%
same,"viability, T/C",[9],8.74%
same,"viability, T/C",[10],11.7%
same,"viability, T/C","second compound 0.1 µM, first compound 0.00316 µM",33.3%
same,"viability, T/C","second compound 0.1 µM, first compound 0.01 µM",16.6%
same,"viability, T/C",[11],9.62%
same,"viability, T/C",[12],6.3%
same,"viability, T/C",[13],10.2%
same,"viability, T/C",[14],15.5%
same,"viability, T/C","second compound 0.316 µM, first compound 0.00316 µM",26.4%
same,"viability, T/C","second compound 0.316 µM, first compound 0.01 µM",12.7%
same,"viability, T/C",[15],8.57%
same,"viability, T/C",[16],8%
same,"viability, T/C",[17],11.9%
same,"viability, T/C",[18],13.1%
same,"viability, T/C","second compound 1 µM, first compound 0.00316 µM",2.16%
same,"viability, T/C","second compound 1 µM, first compound 0.01 µM",3.01%
same,"viability, T/C",[19],7.32%
same,"viability, T/C",[20],8.2%
same,"viability, T/C",[21],13.4%
same,"viability, T/C",[22],15.4%
same,"viability, T/C","second compound 3.16 µM, first compound 0.00316 µM",3.22%
same,"viability, T/C","second compound 3.16 µM, first compound 0.01 µM",5.26%
same,"viability, T/C",[23],11.6%
same,"viability, T/C",[24],11.3%
same,"viability, T/C",[25],14.1%
same,"viability, T/C",[26],13%
same,"viability, T/C","second compound 10 µM, first compound 0.00316 µM",2.58%
same,"viability, T/C","second compound 10 µM, first compound 0.01 µM",4.97%
same,"viability, T/C",[27],9.49%
same,"viability, T/C",[28],8.95%
same,"viability, T/C",[29],11.7%
same,"viability, T/C",[30],14%
COc1c(OCCCN2CCOCC2)ccc2c3n(c(=NC(=O)c4cnc(N)nc4)nc12)CCN3,"viability, T/C",compound 0.00316 µM,97% and 92.1%
same,"viability, T/C",compound 0.01 µM,101% and 121%
same,"viability, T/C",compound 0.0316 µM,109% and 111%
same,"viability, T/C",compound 0.1 µM,77.3% and 65.7%
same,"viability, T/C",compound 0.316 µM,50.9% and 52%
same,"viability, T/C",compound 1 µM,41.1% and 39.6%
same,IC50,curve of compound,0.281 µM and 0.248 µM
Nc1ccccc1NC(=O)c1ccc(CNC(=O)OCc2cccnc2)cc1 + CNC(=O)c1ccc(Nc2nc(OC3CCCC3)c3c(-c4ccc5nc(C)oc5c4)c[nH]c3n2)c(OC)c1,IC50,[1],6.71 µM
same,IC50,[2],6.55 µM
same,IC50,[3],6.73 µM
same,IC50,[4],5.72 µM
same,IC50,[5],5.1 µM
same,IC50,[6],5.51 µM
same,"viability, T/C",[7],89.6%
same,"viability, T/C",[8],96.7%
same,"viability, T/C",[9],94.7%
same,"viability, T/C",[10],90.3%
same,"viability, T/C","second compound 0.0316 µM, first compound 3.16 µM",82.8%
same,"viability, T/C","second compound 0.0316 µM, first compound 10 µM",32.4%
same,"viability, T/C",[11],92.1%
same,"viability, T/C",[12],93.8%
same,"viability, T/C",[13],102%
same,"viability, T/C",[14],87.3%
same,"viability, T/C","second compound 0.1 µM, first compound 3.16 µM",81.7%
same,"viability, T/C","second compound 0.1 µM, first compound 10 µM",31.9%
same,"viability, T/C",[15],74.4%
same,"viability, T/C",[16],79.8%
same,"viability, T/C",[17],83.9%
same,"viability, T/C",[18],89.7%
same,"viability, T/C","second compound 0.316 µM, first compound 3.16 µM",83.2%
same,"viability, T/C","second compound 0.316 µM, first compound 10 µM",33.1%
same,"viability, T/C",[19],86%
same,"viability, T/C",[20],80.8%
same,"viability, T/C",[21],71.3%
same,"viability, T/C",[22],77.9%
same,"viability, T/C","second compound 1 µM, first compound 3.16 µM",70.6%
same,"viability, T/C","second compound 1 µM, first compound 10 µM",30.6%
same,"viability, T/C",[23],71.5%
same,"viability, T/C",[24],74.8%
same,"viability, T/C",[25],72.2%
same,"viability, T/C",[26],65.9%
same,"viability, T/C","second compound 3.16 µM, first compound 3.16 µM",65.6%
same,"viability, T/C","second compound 3.16 µM, first compound 10 µM",29.3%
same,"viability, T/C",[27],67.6%
same,"viability, T/C",[28],73.9%
same,"viability, T/C",[29],67.8%
same,"viability, T/C",[30],73.6%
same,"viability, T/C","second compound 10 µM, first compound 3.16 µM",69.8%
same,"viability, T/C","second compound 10 µM, first compound 10 µM",28.6%
